These results are taken from patent publication US7897638B2, “Synthesis of nitrodibenzylfuran chromophore for photodeprotection of organic molecules” (Philadelphia Health & Education Corporation, priority 2005, dated 2011).

Like-named read-outs stand apart in the source and are kept apart here.

The conditions of data set [1]: widely used, commercially available caged compounds; cited from earlier work.
A short description of data set [2]: Two-photon photolysis. Format: physicochemical. Here is the method:
Two-photon photolysis (2PP) of a solution contains MNI-glutamate (1.4 mM) and NDBF-EGTA (0.1 mM), by raster scanning the solution (256 pulses, 4 ms each, 300 mW).

The nature of data set [3]: Photochemical properties of caged compounds (Table 1). Type of data set: physicochemical. The settings on record: for ε/M^−1 cm^−1 (extinction coefficient): NDBF chromophore; for ε · φ (efficiency of use of the incident light): product of extinction coefficient and quantum yield. The source says: The extinction coefficient (ε) and the quantum yield (φ) are the two photochemical properties that define the efficiency of a chromophore. The former is an absolute value of a chromophore; the latter depends upon the exact nature of the photolyzed bond, as well as the chromophore itself. The four most widely used caged compounds (ATP, IP3, glutamate, Ca) with the ortho-nitrobenzyl chromophore have ε and φ in the range of 430-970 and 0.14-0.63. The product (ε·φ) for each caged compound defines the efficiency of use of the incident light.

For data set [4] the following is noted: known standard; cited from earlier work.
The nature of data set [5]: Quantum yield of photolysis by comparison with MNI-glutamate, HPLC. Format: physicochemical. As to conditions: photolyzed at 350 nm, relative to MNI-glutamate; listed as NDBF Calcium. The source says:
Inventors measured the quantum yield of photolysis of NDBF-EGTA by comparison with a known standard, 4-methoxy-7-nitroindolinyl(MNI)-glutamate (Matsuzaki, et al., 1999). A solution containing NDBF-EGTA and MNI-glutamate was photolyzed at 350 nm, in order to determine the relative % photolysis of the two caged compounds. The concentrations of the two compounds were set so that their chromophores would absorb the same amount of light (MNI/NDBF ratio 3.7:1), and so that the total optical density was 0.4. Under these conditions the same number of excited states are created simultaneously for both cages, making determination of the quantum for NBDF-EGTA more reliable. As a control, both cages were photolyzed separately to check that there was no interference from simultaneous photolysis. Inosine was also included in the photolysis reaction mixture, as a photochemically inert standard. MNI-glutamate has a quantum yield of photolysis of 0.085. […] Saturating [Ca] had no effect on this value.

Take `COc1cc(COP(=O)(O)OP(=O)(O)OP(=O)(O)OCC2OC(n3cnc4c(N)ncnc43)C(O)C2O)c([N+](=O)[O-])cc1OC` (centres unmarked) [DMNB ATP]: in data set [1], the “Rate/s^−1 (rate of release)” value was 18 s⁻¹ and the “φ (quantum yield)” value is on record as 0.07.

For nitrodibenzylfuran [NDBF], the 2-photon cross-section result in data set [2] is on record as “at least 0.3 GM”. In data set [3], the “ε/M^−1 cm^−1 (extinction coefficient)” value is reported as 18,400 M^−1 cm^−1 and the “ε · φ (efficiency of use of the incident light)” value is on record as “above 10,000”.

As for `COc1cc(COP2(=O)OCC3OC(n4cnc5c(N)ncnc54)C(O)C3O2)c([N+](=O)[O-])cc1OC` (centres unmarked) [DMNB cAMP], in data set [1], the “Rate/s^−1 (rate of release)” value is 300 s⁻¹ and the “φ (quantum yield)” value was 0.05.

Consider `COc1ccc([N+](=O)[O-])c2c1CCN2C(=O)CC[C@H](N)C(=O)O` [MNI-glutamate, 4-methoxy-7-nitroindolinyl(MNI)-glutamate, reference compound], for which, in data set [2], the 2-photon cross-section came out at 0.06 GM. In addition, in data set [4], the “quantum yield of photolysis” value is reported as 0.085.

For the molecule NDBF-EGTA, in data set [5], the “φ (quantum yield of photolysis)” value is reported as 0.6. Further, the 2-photon cross-section in data set [2] is reported as 0.3-0.6 GM. In data set [3], the “ε/M^−1 cm^−1 (extinction coefficient)” value is 18,400 M^−1 cm^−1 and the “ε · φ (efficiency of use of the incident light)” value was 11,000. In addition, the “Rate/s^−1 (rate of release)” value in data set [3] (NDBF-caged calcium) is 25,000 s^−1.
